Laboratory results: ChEMBL document CHEMBL6092184, “Talauromides A-G, Nitrogen-Containing Heptacyclic Oligophenalenone Dimers from the Soil Fungus Talaromyces stipitatus BMC-16” (2024)
Active and inactive are the calls of the source. The rule behind the calls is not given here.

Legend:
[1] = In-vivo inhibition of BIO-induced Wnt/beta-catenin signaling pathway in zebrafish embryo assessed as reversal of eyeless phenotype to small and normal like eyes at 20 uM measured at 48 hrs post fertilization; format: functional; settings: Danio rerio
[2] = tested on: HEK293T; test: Inhibition of Wnt/beta-catenin signaling pathway in HEK293T cells assessed as downregulation of BIO-induced nonphosphorylated beta-catenin level at 20 uM incubated for 12 hrs by immunoblotting analysis; format: cell-based; settings: Homo sapiens

Structure (SMILES) | inhibition in vivo at 20 µM [1] [%] | inhibition [2]
Cc1cc(O)c2c3c1C(=O)[C@@H]1C4=C(C(=O)c5cn(CCCC(=O)O)c(=O)c6c(O)cc(C)c4c56)[C@@]3(COC2=O)[C@H]1O | 96.6 | Active
CC(=O)O[C@H]1[C@@H]2C(=O)c3c(C)cc(O)c4c3[C@@]1(COC4=O)c1c(O)c3c4c(c(O)cc(C)c4c12)C(=O)OC3 | 100 | Active
CC(=O)O[C@H]1[C@@H]2C(=O)c3c(C)cc(O)c4c3[C@@]1(COC4=O)c1c(O)c3c4c(c(O)cc(C)c4c12)C(=O)O3 | 80 | Active
